Legend:
[1] = tested on: nerve injury animal models (SCI, LSS, SNI); test: Mechanical allodynia (von-Frey filaments, 50% paw withdrawal threshold) in nerve injury animal models; format: in vivo, Sprague-Dawley rats; settings: intraperitoneal 5 mg/kg; at 1 hour after administration
Protocol: To be used as a central nerve injury animal model, a traumatic spinal cord injury (SCI) model was prepared (FIG. 1A). Specifically, 230 to 250 g of male adult Sprague-Dawley rats were anesthetized by intraperitoneal injection of chloral hydrate (500 mg/kg), and then the back and neck regions were shaved, and the spinal cord under the back and neck regions was exposed without damaging the dura mater, and a laminectomy was performed at T9 to T10 levels. To stabilize the spine, the spinous processes of T8 and T11 were fixed, and the spine was damaged by free-falling a 10 g weight from a height of 25 mm using an NYU impactor onto the back surface of the exposed spinal cord and then the rats were left in a temperature and humidity-controlled chamber overnight while covering the muscles and skin. After surgery, the rats were subcutaneously injected with a supplement solution (5 ml, lactated ringer) and injected with antibiotics (gentamicin, 5 mg/kg, intramuscular injection) once daily for 5 days. The body weight, remaining food, and the weight of water were confirmed and recorded for all animals, and the bladder was emptied twice daily by passive bladder massage until reflex micturition was established. At this time, a Sham group was a group that was subjected to only laminectomy without damage.
To be used as a peripheral nerve injury animal model, a lumbar spinal stenosis (LSS) model was prepared (FIG. 1B). Specifically, 260 to 280 g of adult male Sprague-Dawley rats were anesthetized with intraperitoneal injection of chloral hydrate (500 mg/kg), the back region was shaved, and then the spinal plate was exposed at L4 to S2 levels. After removing the ligamentous section between L4 and L5, a trapezoidal silicone block (1.00 mm long × 1.3 to 1.2 mm wide × 1.0 mm high) was inserted into the epidural space below the L5 and L6 spinal plates without damaging the dural sac. At this time, a Sham group was a group that was subjected to only posterior […] on the animal without inserting a silicone block.
To be used as a peripheral nerve injury animal model, a sciatic nerve injury (SNI) model was prepared (FIG. 1C). Specifically, 200 to 220 g of male adult Sprague-Dawley rats were anesthetized by intraperitoneal injection of chloral hydrate (500 mg/kg), and then three terminal branches (tibial, common peroneal, and sural nerves) of the right sciatic nerve were approached, and the tibia nerve and the peroneal nerve were tightly ligated with 4-0 silk, and neurectomy was performed at a distal 3 mm position of the ligation site. At this time, a Sham group was a group that exposed only the sciatic nerve without damage.
In order to confirm a neuropathic pain inhibitory effect of YJ102 (Chemical Formula 1), a compound of the present disclosure, in the three nerve injury animal models prepared in Example 1 above, rats having pain on week 3 (SNI model) or week 4 (SCI model and LSS model) after surgery were selected and administered orally (p.o.) at 10 mg/kg or 20 mg/kg of YJ102 dissolved in a solution of DMSO, methyl pyrrolidinone, and water (1 : 1.5 : 1), or intraperitoneally injected (i.p. injection) at 1, 2, or 5 mg/kg of YJ102. In a positive control group, gabapentin or pregabalin dissolved in saline was intraperitoneally injected at a concentration of 5 mg/kg, and in a Vehicle group, the same amount of a solution of DMSO, methyl pyrrolidinone, and water was administered. Thereafter, in order to measure mechanical allodynia, the rats were located at the bottom of a transparent plastic box (10 cm × 10 cm) on top of a wire mesh (3 mm × 3 mm) and subjected to an adaptation period for approximately 20 minutes. Von-Frey filaments were applied to the soles of both paws and used with stiff nylon von-Frey monofilament series ([…], Stoelting, WoodDale, IL, USA; equivalent in grams to 0.4, 0.6, 1.0, 2.0, 4.0, 6.0, 8.0 and 15.0) with logarithmic increases in tactile (mechanical) sensitivity. […]

[2] = Observation of sedation as a side effect at high doses; format: in vivo, rats

Row | Compound | analgesic effect (mechanical allodynia) [1] | sedation as a side effect ([2]; 20 mg/kg) | sedation as a side effect ([2]; 50 mg/kg)
1 | CC(C)C[C@H](CN)CC(=O)O [pregabalin, reference compound] | significant analgesic effect | observed | 
2 | NCC1(CC(=O)O)CCCCC1 [gabapentin, reference compound] | significant analgesic effect |  | observed

Source: EP4699605A1, “USE OF NOVEL COMPOUND FOR TREATING INTRACTABLE DISEASES” (YJ Cerapeutics Inc., priority 2023, dated 2024)
